Assay results: patent US20220056043A1, “NITROGEN-CONTAINING FUSED CYCLIC COMPOUND, PREPARATION METHOD THEREFOR AND USE THEREOF” (SICHUAN KELUN-BIOTECH BIOPHARMACEUTICAL CO., LTD., priority 2019, published 2022)
Where two headings read alike, the source gives them in different places.

Key:
THP1-defNLRP3 cells = assay: Agonistic effect on the expression of IL-1β in NLRP3 deficient THP1 cells (THP1-defNLRP3) after PMA-induced differentiation (HTRF); type: cell-based, human; conditions: IL-1β level, PMA-differentiated NLRP3 deficient THP1 cells, 6 hours, highest test concentration 30 μM, read-out: hNLRP3 EC50 (μM) (THP-1defNLRP3)
Summary of the method: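 PMA-differentiated (1 μM, 24 h) NLRP3-deficient THP1 macrophages, 1×10^5 cells/well in RPMI 1640 with 2% heat-inactivated FBS, treated with compound for 6 h at 37 °C. Supernatant IL-1β measured by HTRF. EC50 from four-parameter variable-slope fit.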

hTLR7 = molecular target: T1, hTLR7 (Homo sapiens, UniProt Q9NYK1); assay: Agonistic effect on hTLR7, HEK-hTLR7-NF-κB-Luciferase reporter cells; type: cell-based; conditions: 16 hours
T1 construct: host or cells: HEK-hTLR7-NF-κB-Luciferase cells
T1 sequence (Q9NYK1 27-1049): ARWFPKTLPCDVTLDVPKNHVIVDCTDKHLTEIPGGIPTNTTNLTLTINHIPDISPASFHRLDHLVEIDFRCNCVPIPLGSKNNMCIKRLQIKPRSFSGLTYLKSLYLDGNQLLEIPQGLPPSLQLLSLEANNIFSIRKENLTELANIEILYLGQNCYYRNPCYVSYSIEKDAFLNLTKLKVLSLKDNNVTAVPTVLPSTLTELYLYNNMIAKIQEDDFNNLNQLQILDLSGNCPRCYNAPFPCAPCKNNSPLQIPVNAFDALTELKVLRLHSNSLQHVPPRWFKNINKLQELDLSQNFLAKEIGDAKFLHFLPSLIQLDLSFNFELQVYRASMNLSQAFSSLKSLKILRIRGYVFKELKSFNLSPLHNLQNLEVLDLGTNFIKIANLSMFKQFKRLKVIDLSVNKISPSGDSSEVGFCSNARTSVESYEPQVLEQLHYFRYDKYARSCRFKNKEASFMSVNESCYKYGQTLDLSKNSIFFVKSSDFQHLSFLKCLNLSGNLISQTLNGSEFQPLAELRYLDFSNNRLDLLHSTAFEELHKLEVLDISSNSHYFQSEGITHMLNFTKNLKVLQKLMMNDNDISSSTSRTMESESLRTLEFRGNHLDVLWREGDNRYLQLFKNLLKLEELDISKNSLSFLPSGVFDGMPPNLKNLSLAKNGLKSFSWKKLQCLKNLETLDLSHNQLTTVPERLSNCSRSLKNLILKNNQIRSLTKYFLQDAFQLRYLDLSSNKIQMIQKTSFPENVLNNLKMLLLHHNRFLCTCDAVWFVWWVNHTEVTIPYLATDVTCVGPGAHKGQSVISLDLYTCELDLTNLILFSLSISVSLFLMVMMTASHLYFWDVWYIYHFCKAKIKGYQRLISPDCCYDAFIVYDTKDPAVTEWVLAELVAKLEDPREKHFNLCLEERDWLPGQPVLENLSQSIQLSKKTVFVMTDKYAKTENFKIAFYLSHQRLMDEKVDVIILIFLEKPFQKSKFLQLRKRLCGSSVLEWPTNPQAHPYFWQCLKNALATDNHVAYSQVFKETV
Summary of the method: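 HEK cells carrying human TLR7 and NF-κB-luciferase reporter, […] in DMEM with 10% FBS, exposed to compound for 16 h at 37 °C, 5% CO2; serves as specificity counterscreen to NLRP3 activity. Luminescence (RLU) after 5 min with luciferase reagent; EC50 by four-parameter variable-slope fit.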

Row | Structure (SMILES) | EC50 (THP1-defNLRP3 cells; Homo sapiens, THP-1) | EC50 (hTLR7) | EC50 (THP1-defNLRP3 cells)
1 | CC(C)(O)CNc1cc(N)nc2cc(-c3ccn[nH]3)sc12 [Compound 28, (1-(5-amino-2-(1H-pyrazol-5-yl)thieno[3,2-b]pyridin-7-yl)amino)-2-methyl-2-propanol] | > 30 µM | > 100 µM | –
2 | C[C@@H](O)CNc1cc(N)nc2cc(-c3ccn[nH]3)sc12 [Compound 29] | > 30 µM | > 100 µM | –
3 | Nc1cc(N[C@@H]2CC[C@@H](O)C2)c2sc(-c3ccn[nH]3)cc2n1 [Compound 30, (1R,3R)-3-((5-amino-2-(1H-pyrazol-5-yl)thieno[3,2-b]pyridin-7-yl)amino)cyclopentanol] | – | > 100 µM | > 30 µM
4 | Nc1cc(NC(CCO)c2ccccc2)c2sc(-c3ccn[nH]3)cc2n1 (centres unmarked) [Compound 123, 3-((5-amino-2-(1H-pyrazol-5-yl)thieno[3,2-b]pyridin-7-yl)amino)-3-phenyl-1-propanol] | > 30 µM | > 100 µM | –
5 | C[C@@H]1CN(CCNc2cc(N)nc3cc(-c4ccn[nH]4)sc23)C[C@@H](C)O1 [Compound 124, N^7-(2-((2R,6R)-2,6-dimethylmorpholino)ethyl)-2-(1H-pyrazol-5-yl)thieno[3,2-b]pyridine-5,7-diamine] | > 30 µM | > 100 µM | –
6 | C[C@@H](CCO)Nc1cc(N)nc2cc(-c3ccn[nH]3)sc12 [Compound 125, (S)-3-((5-amino-2-(1H-pyrazol-5-yl)thieno[3,2-b]pyridin-7-yl)amino)butanol] | > 30 µM | > 100 µM | –
7 | Nc1cc(NCC2CCC2)c2sc(-c3ccn[nH]3)cc2n1 [Compound 126, N^7-(cyclobutylmethyl)-2-(1H-pyrazol-5-yl)thieno[3,2-b]pyridine-5,7-diamine] | > 30 µM | > 100 µM | –
8 | CN(CCCO)c1cc(N)nc2cc(-c3ccn[nH]3)sc12 [Compound 127, 3-((5-amino-2-(1H-pyrazol-5-yl)thieno[3,2-b]pyridin-7-yl)(methyl)amino)-1-propanol] | > 30 µM | > 100 µM | –
9 | C[C@H]1CC[C@H](Nc2cc(N)nc3cc(-c4ccn[nH]4)sc23)CC1 [Compound 128, N^7-((1R,4R)-4-methylcyclohexyl)-2-(1H-pyrazol-5-yl)thieno[3,2-b]pyridine-5,7-diamine] | > 30 µM | > 100 µM | –
10 | C[C@]1(O)C[C@@H](Nc2cc(N)nc3cc(-c4ccn[nH]4)sc23)C1 [Compound 129, (1s,3s)-3-((5-amino-2-(1H-pyrazol-5-yl)thieno[3,2-b]pyridin-7-yl)amino)-1-methylcyclobutanol] | > 30 µM | > 100 µM | –
11 | C[C@H](Nc1cc(N)nc2cc(-c3ccn[nH]3)sc12)c1cccc(C(F)(F)F)c1 [Compound 131, (S)-2-(1H-pyrazol-5-yl)-N^7-(1-(3-(trifluoromethyl)phenyl)ethyl)thieno[3,2-b]pyridine-5,7-diamine] | > 30 µM | > 100 µM | –
12 | CC[C@@H](CO)Nc1cc(N)nc2cc(-c3ccn[nH]3)sc12 [Compound 132, (S)-2-((5-amino-2-(1H-pyrazol-5-yl)thieno[3,2-b]pyridin-7-yl)amino)-1-butanol] | > 30 µM | > 100 µM | –
13 | COC[C@@H](C)Nc1cc(N)nc2cc(-c3ccn[nH]3)sc12 [Compound 133, (R)—N^7-(1-methoxyprop-2-yl)-2-(1H-pyrazol-5-yl)thieno[3,2-b]pyridine-5,7-diamine] | > 30 µM | > 100 µM | –
14 | Cc1cccnc1CNc1cc(N)nc2cc(-c3ccn[nH]3)sc12 [Compound 134, N^7-((3-methylpyridin-2-yl)methyl)-2-(1H-pyrazol-5-yl)thieno[3,2-b]pyridine-5,7-diamine] | > 30 µM | > 100 µM | –
15 | Nc1cc(NCCN2CCCC2=O)c2sc(-c3ccn[nH]3)cc2n1 [Compound 135, 1-(2-((5-amino-2-(1H-pyrazol-5-yl)thieno[3,2-b]pyridin-7-yl)amino)ethyl)pyrrolidin-2-one] | > 30 µM | > 100 µM | –
16 | Nc1cc(NCC(CO)CO)c2sc(-c3ccn[nH]3)cc2n1 [Compound 136] | > 30 µM | > 100 µM | –
17 | CNC(=O)CNc1cc(N)nc2cc(-c3ccn[nH]3)sc12 [Compound 137, 2-((5-amino-2-(1H-pyrazol-5-yl)thieno[3,2-b]pyridin-7-yl)amino)-N-methylacetamide] | > 30 µM | > 100 µM | –
18 | Nc1cc(NCC(=O)NC2CC2)c2sc(-c3ccn[nH]3)cc2n1 [Compound 138, 2-((5-amino-2-(1H-pyrazol-5-yl)thieno[3,2-b]pyridin-7-yl)amino)-N-cyclopropylacetamide] | > 30 µM | > 100 µM | –
19 | CN(CCO)c1cc(N)nc2cc(-c3ccn[nH]3)sc12 [Compound 139, 2-((5-amino-2-(1H-pyrazol-5-yl)thieno[3,2-b]pyridin-7-yl)(methyl)amino)ethanol] | > 30 µM | > 100 µM | –
20 | Nc1cc(N[C@H]2[C@@H]3CNC[C@@H]32)c2sc(-c3ccn[nH]3)cc2n1 [Compound 142, N^7-((1R,5S,6S)-3-azabicyclo[3.1.0]hex-6-yl)-2-(1H-pyrazol-5-yl)thieno[3,2-b]pyridin-5,7-diamine] | > 30 µM | > 100 µM | –

Second part, the molecule after the results:

Row | EC50 (THP1-defNLRP3 cells; Homo sapiens, THP-1) | EC50 (hTLR7) | EC50 (THP1-defNLRP3 cells) | Structure (SMILES)
21 | > 30 µM | > 100 µM | – | CCN(CCNc1cc(N)nc2cc(-c3ccn[nH]3)sc12)C(=O)Cc1cccc(C)c1 [Compound 140, N-(2-((5-amino-2-(1H-pyrazol-5-yl)thieno[3,2-b]pyridin-7-yl)amino)ethyl)-N-ethyl-2-(m-tolyl)acetamide]
22 | > 30 µM | > 100 µM | – | CC(C)CNc1cc(N)nc2cc(-c3ccn[nH]3)sc12 [Compound 141, N^7-isobutyl-2-(1H-pyrazol-5-yl)thieno[3,2-b]pyridin-5,7-diamine]
23 | > 30 µM | > 100 µM | – | Nc1cc(NC2CCC(F)(F)CC2)c2sc(-c3ccn[nH]3)cc2n1 [Compound 143, N^7-(4,4-difluorocyclohexyl)-2-(1H-pyrazol-5-yl)thieno[3,2-b]pyridin-5,7-diamine]
24 | > 30 µM | > 100 µM | – | CC(C)C[C@H](CO)Nc1cc(N)nc2cc(-c3ccn[nH]3)sc12 [Compound 144, (R)-2-((5-amino-2-(1H-pyrazol-5-yl)thieno[3,2-b]pyridin-7-yl)amino)-4-methyl-1-pentanol]
25 | > 30 µM | > 100 µM | – | CCC(=O)N(CC)CCNc1cc(N)nc2cc(-c3ccn[nH]3)sc12 [Compound 145, N-(2-((5-amino-2-(1H-pyrazol-5-yl)thieno[3,2-b]pyridin-7-yl)amino)ethyl)-N-ethylpropionamide]
26 | > 30 µM | > 100 µM | – | CCN(CCNc1cc(N)nc2cc(-c3ccn[nH]3)sc12)C(=O)C1CC1 [Compound 146, N-(2-((5-amino-2-(1H-pyrazol-5-yl)thieno[3,2-b]pyridin-7-yl)amino)ethyl)-N-ethylcyclopropyl formamide]
27 | > 30 µM | > 100 µM | – | Nc1cc(N[C@H]2CC[C@H](O)CC2)c2sc(-c3ccn[nH]3)cc2n1 [Compound 147, (1R,4R)-4-((5-amino-2-(1H-pyrazol-5-yl)thieno[3,2-b]pyridin-7-yl)amino)cyclohexanol]
28 | > 30 µM | > 100 µM | – | C[C@@H]1CN(c2cc(N)nc3cc(-c4ccn[nH]4)sc23)C[C@@H](C)O1 [Compound 148, 7-((2R,6R)-2,6-dimethylmorpholino)-2-(1H-pyrazol-5-yl)thieno[3,2-b]pyridine-5-amine]
29 | > 30 µM | > 100 µM | – | Cc1noc(C)c1CNc1cc(N)nc2cc(-c3ccn[nH]3)sc12 [Compound 149, N^7-((3,5-dimethylisoxazol-4-yl)methyl)-2-(1H-pyrazol-5-yl)thieno[3,2-b]pyridine-5,7-diamine]
30 | > 30 µM | > 100 µM | – | Nc1cc(NCCCN2CCCC2=O)c2sc(-c3ccn[nH]3)cc2n1 [Compound 150]
31 | > 30 µM | > 100 µM | – | Cc1c(-c2cc[nH]n2)sc2c(NCC(C)(C)CO)cc(N)nc12 [Compound 151]
